Assay results reported in patent publication USRE39609E1, “8-iso-prostaglandins for glaucoma therapy” (Mount Sinai School of Medicine of New York University, priority 1997, dated 2007).

Tests used:
Assay type in all cases: in vivo
[1] = tested on: laser-induced glaucomatous eyes in cynomolgus monkeys; assay: Intraocular pressure after single topical dose in glaucomatous monkey eyes; settings: for Intraocular Pressure (treated - baseline) (mean ± SEM) / relative activity in decreasing IOP among the compounds tested: glaucomatous monkey eyes; for maximum reduction in IOP (mean SEM) / time for which IOP was reduced (p<0.05): single 25 μl dose of 0.1 percent, laser-induced glaucomatous eyes, cynomolgus monkeys; for relative activity in decreasing IOP among the compounds tested: 0.1 percent; for maximum reduction in IOP (mean±SEM) as compared to baseline / time for which IOP was reduced (p<0.005): single 25 μl dose
Procedure: Experiments were performed to evaluate the effects of single dose administration of 8-iso PGE2 an IOP in normal (“N”) and glaucomatous (“G”) monkey eyes, and to determine the mechanism by which 8-iso PGE2 alters IOP in N monkey eyes, when applied topically. A single 25 μl dose study was performed in 6 N and 8 G monkeys. IOP and pupil sizes were measured before and at 0 hr, 0.5 hr and then hourly for a total of 6 hrs after 0.05% or 0.1% drug concentrations were administered. Tonographic outflow facility (“C”) and fluorophotometric aqueous humor flow (F) were determined in 6 N monkeys before and after unilateral application of 25 μl of 0.1% 8-iso PGE2. In 8 G monkey eyes, 8-isoPGE2 reduced IOP (p<0.005) up to 2 hrs or 5 hrs following administration of the 0.05% or 0.1% concentration, respectively. The maximum reduction in IOP was 4.6±0.8 (mean±SEM)mm Hg (0.05%) and 6.6±0.8 mm Hg (0.1%), as compared to baseline measurements. After topical application of 8-iso PGE2 the IOP was lower (p<0.01) in the treated eyes of 6 N monkeys for 4 hrs, with a maximum difference of 3.2±0.2 mmHg, as compared to the fellow contralateral control eyes. The pupil size was smaller (p<0.01) for 4 hrs, up to 1.0±0.2 mm. Compared with vehicle-treated contralateral control eyes, C was greater (p<0.005) by 48% at 2 hr after a single dose of 0.1% 8-iso PGE2. F was unchanged (p<0.10) over a period of 4 hrs after drug administration. […] Because of the individual variability in laser-induced glaucomatous monkey eyes, the IOP and facility measurements are expressed in the table as ratios (value of the drug-treated eye+the value of the vehicle-treated eye). The ratios were calculated from the values of the same glaucomatous monkey eye determined immediately prior to administration of the drug or the vehicle (time 0 hrs.), and the values at 2 hours after administration of the drug or vehicle. […] Thus the mechanism of lowering IOP by 8-iso PGE2 in both normal and glaucomatous eyes is primarily due to an increase in aqueous humor trabecular outflow. IOP was measured one hour before and at intervals up to six hours after a single dose of 8-iso PGE, (the 13, 14 dihydro derivative of 8-iso PGE2), 8-iso PGE2, or 8-iso PGF2α in laser-induced glaucomatous eyes in cynomolgus monkeys (wherein only one eye is rendered glaucomatous and the other serves as a control). Following one day of baseline IOP measurement, a single 25 μl dose of either (i) 0.1 percent 8-iso PGE1, or (ii) 0.1 percent 8-iso PGE2, or (iii) 0.1 percent 8-iso PGF2α, was topically applied to the glaucomatous eye in groups of 4 or 8 monkeys. […] The maximum reduction in IOP was 5.3±0.8 (mean SEM) mm Hg at 2 hours after dosing 8-iso PGE2 (0.1 percent) reduced IOP (p<0.05) for 5 hours with a maximum reduction in IOP of 6.6±0.8 mm Hg at 2 hours after dosing (n=8). […] Based on these studies, of the compounds tested, 8-iso PGE2 appears to have the greatest and 8-iso PGF2α, the least activity in decreasing IOP in glaucomatous monkey eyes.

normal monkey eyes [2] = assay: Intraocular pressure after single topical dose in normal monkey eyes
Procedure: Experiments were performed to evaluate the effects of single dose administration of 8-iso PGE2 an IOP in normal (“N”) and glaucomatous (“G”) monkey eyes, and to determine the mechanism by which 8-iso PGE2 alters IOP in N monkey eyes, when applied topically. A single 25 μl dose study was performed in 6 N and 8 G monkeys. […] Tonographic outflow facility (“C”) and fluorophotometric aqueous humor flow (F) were determined in 6 N monkeys before and after unilateral application of 25 μl of 0.1% 8-iso PGE2. In 8 G monkey eyes, 8-isoPGE2 reduced IOP (p<0.005) up to 2 hrs or 5 hrs following administration of the 0.05% or 0.1% concentration, respectively. The maximum reduction in IOP was 4.6±0.8 (mean±SEM)mm Hg (0.05%) and 6.6±0.8 mm Hg (0.1%), as compared to baseline measurements. After topical application of 8-iso PGE2 the IOP was lower (p<0.01) in the treated eyes of 6 N monkeys for 4 hrs, with a maximum difference of 3.2±0.2 mmHg, as compared to the fellow contralateral control eyes. The pupil size was smaller (p<0.01) for 4 hrs, up to 1.0±0.2 mm. Compared with vehicle-treated contralateral control eyes, C was greater (p<0.005) by 48% at 2 hr after a single dose of 0.1% 8-iso PGE2. F was unchanged (p<0.10) over a period of 4 hrs after drug administration.

normal monkey eyes [3] = assay: Pupil size after topical application in normal monkeys
Procedure: (§1) Experiments were performed to evaluate the effects of single dose administration of 8-iso PGE2 an IOP in normal (“N”) and glaucomatous (“G”) monkey eyes, and to determine the mechanism by which 8-iso PGE2 alters IOP in N monkey eyes, when applied topically. A single 25 μl dose study was performed in 6 N and 8 G monkeys. IOP and pupil sizes were measured before and at 0 hr, 0.5 hr and then hourly for a total of 6 hrs after 0.05% or 0.1% drug concentrations were administered. Tonographic outflow facility (“C”) and fluorophotometric aqueous humor flow (F) were determined in 6 N monkeys before and after unilateral application of 25 μl of 0.1% 8-iso PGE2. In 8 G monkey eyes, 8-isoPGE2 reduced IOP (p<0.005) up to 2 hrs or 5 hrs following administration of the 0.05% or 0.1% concentration, respectively. The maximum reduction in IOP was 4.6±0.8 (mean±SEM)mm Hg (0.05%) and 6.6±0.8 mm Hg (0.1%), as compared to baseline measurements. After topical application of 8-iso PGE2 the IOP was lower (p<0.01) in the treated eyes of 6 N monkeys for 4 hrs, with a maximum difference of 3.2±0.2 mmHg, as compared to the fellow contralateral control eyes. The pupil size was smaller (p<0.01) for 4 hrs, up to 1.0±0.2 mm. Compared with vehicle-treated contralateral control eyes, C was greater (p<0.005) by 48% at 2 hr after a single dose of 0.1% 8-iso PGE2. […]

normal monkey eyes [4] = assay: Tonographic outflow facility (C) in normal monkeys
Procedure: Experiments were performed to evaluate the effects of single dose administration of 8-iso PGE2 an IOP in normal (“N”) and glaucomatous (“G”) monkey eyes, and to determine the mechanism by which 8-iso PGE2 alters IOP in N monkey eyes, when applied topically. A single 25 μl dose study was performed in 6 N and 8 G monkeys. […] In 8 G monkey eyes, 8-isoPGE2 reduced IOP (p<0.005) up to 2 hrs or 5 hrs following administration of the 0.05% or 0.1% concentration, respectively. The maximum reduction in IOP was 4.6±0.8 (mean±SEM)mm Hg (0.05%) and 6.6±0.8 mm Hg (0.1%), as compared to baseline measurements. After topical application of 8-iso PGE2 the IOP was lower (p<0.01) in the treated eyes of 6 N monkeys for 4 hrs, with a maximum difference of 3.2±0.2 mmHg, as compared to the fellow contralateral control eyes. The pupil size was smaller (p<0.01) for 4 hrs, up to 1.0±0.2 mm. […] F was unchanged (p<0.10) over a period of 4 hrs after drug administration.

normal monkey eyes [5] = assay: Fluorophotometric aqueous humor flow (F) in normal monkeys; settings: 6 normal monkeys, over 4 hrs after 25 μl of 0.1%
Procedure: as §1

monkey eyes = assay: Ocular side effects after topical dosing in monkey eyes; settings: eyes treated with the 0.1% concentration
Procedure: as §1

glaucomatous monkey eyes = assay: Outflow facility in glaucomatous monkey eyes; settings: 0.1%, 8 glaucomatous monkey eyes
Procedure: Because of the individual variability in laser-induced glaucomatous monkey eyes, the IOP and facility measurements are expressed in the table as ratios (value of the drug-treated eye+the value of the vehicle-treated eye). The ratios were calculated from the values of the same glaucomatous monkey eye determined immediately prior to administration of the drug or the vehicle (time 0 hrs.), and the values at 2 hours after administration of the drug or vehicle. […] Thus the mechanism of lowering IOP by 8-iso PGE2 in both normal and glaucomatous eyes is primarily due to an increase in aqueous humor trabecular outflow.

[6] = 0.1%, 2 hours after treatment, 6 normal monkeys (Table 1A)
[7] = 0.005%, 6 normal monkeys, 1 hour after treatment
[8] = 0.005%, 1 hour after treatment, 6 normal monkeys (Table 1B)

SMILES: CCCCC[C@H](O)/C=C/[C@H]1[C@H](O)CC(=O)[C@H]1CCCCCCC(=O)O [8-iso PGE1, 8-iso, 5,6 dihydro prostaglandin E2]
- Intraocular Pressure (treated - baseline) (mean ± SEM) ([1]; 0.1%, 1 hr): −3.3 ± 1.3 mm Hg
- Intraocular Pressure (treated - baseline) (mean ± SEM) ([1]; 0.1%, 2 hr): −5.3 ± 0.8 mm Hg
- Intraocular Pressure (treated - baseline) (mean ± SEM) ([1]; 0.1%, 4 hr): −2.3 ± 0.5 mm Hg
- Intraocular Pressure (treated - baseline) (mean ± SEM) ([1]; 0.1%, 6 hr): −1.3 ± 0.9 mm Hg
- maximum reduction in IOP (mean SEM) [1]: 5.3±0.8 mm Hg
- time for which IOP was reduced (p<0.05) [1]: up to four

SMILES: CCCCC[C@H](O)/C=C/[C@H]1[C@H](O)CC(=O)[C@H]1C/C=C\CCCC(=O)O [8-iso PGE2, prosta-5,13-dien-1-oic acid, 11,15-dihydroxy-9-oxo, (5Z, 8β, 11α, 13E,15S)]
- Intraocular Pressure response ratio (drug-treated/vehicle-treated) ([1]; 0.1%, 8 glaucomatous monkey eyes, 2 hr): 0.843 ±
- % change by drug in intraocular pressure (decrease) ([1]; 0.1%, 8 glaucomatous monkey eyes, 2 hr vs 0 hr): 13.8%
- Intraocular Pressure (treated - baseline) (mean ± SEM) ([1]; 0.1%, 1 hr): −4.5 ± 0.9 mm Hg
- Intraocular Pressure (treated - baseline) (mean ± SEM) ([1]; 0.1%, 2 hr): −6.6 ± 0.8 mm Hg
- Intraocular Pressure (treated - baseline) (mean ± SEM) ([1]; 0.1%, 4 hr): −2.9 ± 0.6 mm Hg
- Intraocular Pressure (treated - baseline) (mean ± SEM) ([1]; 0.1%, 6 hr): −1.2 ± 1.2 mm Hg
- relative activity in decreasing IOP among the compounds tested [1]: greatest
- maximum reduction in IOP (mean±SEM) as compared to baseline ([1]; 8 glaucomatous monkey eyes, 0.05%): 4.6±0.8 mm Hg
- time for which IOP was reduced (p<0.005) ([1]; 8 glaucomatous monkey eyes, 0.05% concentration): up to 2 hrs
- maximum reduction in IOP (mean±SEM) as compared to baseline ([1]; 8 glaucomatous monkey eyes, 0.1%): 6.6±0.8 mm Hg
- time for which IOP was reduced (p<0.005) ([1]; 8 glaucomatous monkey eyes, 0.1% concentration): ≤ 5 h
- maximum reduction in IOP (mean SEM) [1]: 6.6±0.8 mm Hg
- time for which IOP was reduced (p<0.05) [1]: 5 h
- Intraocular Pressure Mean ± SEM, treated eyes (drug) (normal monkey eyes [2]; 0.1%, 6 normal monkeys, 2 hours after treatment): 13.0 ± 0.7 mmHg
- lowering of IOP in normal monkey eye (normal monkey eyes [2]; [6]): 20.3%
- maximum difference in IOP as compared to fellow contralateral control eyes (normal monkey eyes [2]; 6 normal monkeys, topical application): 3.2±0.2 mmHg
- time for which IOP was lower (p<0.01) in treated eyes (normal monkey eyes [2]; 6 normal monkeys, topical application, vs fellow contralateral control eyes): 4 h
- reduction in pupil size (normal monkey eyes [3]): up to 1.0±0.2 mm
- time for which pupil size was smaller (p<0.01) (normal monkey eyes [3]): 4 h
- increase of outflow facility in normal monkey eye (normal monkey eyes [4]; [6]): 43.1%
- outflow facility C greater compared with vehicle-treated contralateral control eyes (p<0.005) (normal monkey eyes [4]; 6 normal monkeys, 2 hr after single 25 μl dose of 0.1%): 48%
- aqueous humor flow F change (normal monkey eyes [5]): unchanged
- ocular side effects (monkey eyes): Mild eyelid edema, conjunctival edema, hyperemia, and discharge appeared in some eyes
- Outflow facility response ratio (drug-treated/vehicle treated) (glaucomatous monkey eyes; 2 hr): 1.445 ±
- % change by drug in outflow facility (glaucomatous monkey eyes; 2 hr vs 0 hr): 38.8%

SMILES: CCCCC[C@H](O)/C=C/[C@@H]1[C@H](C/C=C\CCCC(=O)O)[C@@H](O)C[C@H]1O [8-iso PGF2α, prosta-5,13-dien-1-oic acid, 9, 11, 15-trihydroxy-, (5Z, 8β, 9α, 11α, 13E, 15S)-]
- Intraocular Pressure (treated - baseline) (mean ± SEM) ([1]; 0.1%, 1 hr): −3.3 ± 0.8 mm Hg
- Intraocular Pressure (treated - baseline) (mean ± SEM) ([1]; 0.1%, 2 hr): −1.8 ± 1.1 mm Hg
- Intraocular Pressure (treated - baseline) (mean ± SEM) ([1]; 0.1%, 4 hr): −0.8 ± 1.7 mm Hg
- Intraocular Pressure (treated - baseline) (mean ± SEM) ([1]; 0.1%, 6 hr): 0.3 ± 0.5 mm Hg
- relative activity in decreasing IOP among the compounds tested [1]: least
- maximum reduction in IOP (mean SEM) [1]: 3.3±0.9 mm Hg
- time for which IOP was reduced (p<0.05) [1]: only at 1 hour

SMILES: CC(C)OC(=O)CCC/C=C\C[C@@H]1[C@@H](CC[C@@H](O)CCc2ccccc2)[C@H](O)C[C@@H]1O [latanoprost, reference compound]
- Intraocular Pressure Mean ± SEM, treated eyes (drug) (normal monkey eyes [2]; [7]): 13.2 ± 0.7 mmHg
- lowering of IOP in normal monkey eye (normal monkey eyes [2]; [8]): 10.8%
- Outflow Facility Mean ± SEM, treated eyes (drug) (normal monkey eyes [4]; [7]): 0.76 ± 0.08 μl/min/mmHg
- effect on outflow facility in normal monkey eye (normal monkey eyes [4]; [8]): not significant effect
